From PMC11009625, “Antibiotic class with potent in vivo activity targeting lipopolysaccharide synthesis in Gram-negative bacteria” (Proceedings of the National Academy of Sciences of the …, 2024) come the findings set out here.

Assay [1] relates to K. pneumoniae SSI #3010 (EN124). Put plainly: Neutropenic mouse peritonitis model, K. pneumoniae. Type of assay: in vivo, mice. The settings on record: single sc dose; for ED50: Klebsiella pneumoniae; for ED50 / 1-log effective dose, blood, K. pneumoniae / 2-log effective dose, blood, K. pneumoniae / 1-log effective dose, peritoneal fluid, K. pneumoniae / 2-log effective dose, peritoneal fluid, K. pneumoniae: modeled efficacy curves; for Efficacy against K. pneumoniae compared with ciprofloxacin (13 mg/kg): doses ≥50 mg/kg, mouse peritonitis. How it is done: PK and safety studies were done the Latvian Institute for Organic Synthesis (Riga, Latvia) and in vivo efficacy studies were done at Statens Serum Institut (Copenhagen, Denmark). Assays were done in accordance with the relevant permits at the respective sites (SI Appendix). For PK studies, plasma samples were taken from mice dosed subcutaneously and the samples were analyzed by UPLC/MS/MS. For in vivo efficacy studies, neutropenic mice were infected intraperitoneally with 10^6 bacteria and treated with subcutaneously with test compounds 1 h after infection. The mice were euthanized 4 h after treatment and serially diluted samples of blood and peritoneal fluid were plated onto blood agar plates. Complete experimental details available in SI Appendix.
Lantmännen) and water. The experimental procedures were performed in accordance with the guidelines of the European Community and local laws and policies (Directive 2010/63/EU), and all of the procedures were approved by Food and Veterinary Service, Riga, Latvia. […]
Bacterial strains and inoculum. E. coli EC 106-09 (EN122) and K. pneumoniae SSI #3010 (EN124) are clinical isolates from Denmark. Bacterial suspensions for inoculation of mice were prepared […]
at room temperature from fresh overnight cultures on 5% blood agar plates produced by SSI diagnostica (Copenhagen Denmark). The inoculum was prepared immediately before inoculation by suspending colonies in sterile 0.9% saline to an optical density of 0.13 at 540 nm, giving a density of 10^8 CFU/ml and further diluted in 0.9% saline to 2 x 10^6 CFU/ml before injecting into the mice. For each experiment, the size of the inoculum was determined by making ten-fold dilutions in 0.9% saline, of which 20 µl was plated on 5% blood agar plates with subsequent counting of colonies after incubation overnight at 35°C in ambient air.
Mice. Outbred female CD-1 mice 26-30 gram (Envigo, Netherlands) were housed at the animal facility at Statens Serum Institut. The temperature was 22 °C +/- 2 °C and the humidity was 55 +/- 10%. The mice were housed in individually ventilated type 3 macrolone cages with bedding from Tapvei. The air changes per hour were approximately 8-12 times (70-73 times per hours inside cages), and light/dark period was in 12-hours interval of 6 a.m.- 6 p.m./6 p.m – 6 a.m.
The mice had ad libitum access to domestic quality drinking water and food Teklad Global diet 2916C-Envigo) and occasionally peanuts and sunflower seeds (Køge Korn A/S). Further, the animals were offered Enviro-Dri nesting material and cardboard houses (Bio-serv).
Mouse peritonitis model. The mice were rendered neutropenic by injecting 0.5 mL cyclophosphamide solution, 200 mg/kg intraperitoneally at 4 days and 100 mg/kg at 1 day prior to inoculation. 1 h before inoculation, mice were treated orally with […] Nurofen (20 mg ibuprofen/mL corresponding to approximately 30 mg/kg) as a pain relief. Inoculation was performed by intraperitoneal injection of 0.5 ml of the bacterial suspension containing log 6
CFU. The mice were treated subcutaneously with 0.25 – 0.30 mL based on weight, in the neck region with a single dose of compound at 1 hour post inoculation. Mice were monitored for clinical signs of discomfort. 4 h after treatment the mice were anesthetized and blood was collected by heart puncture into EDTA tubes and thereafter mice were euthanized by cervical dislocation and peritoneal washes were performed by injecting 2 ml of sterile saline intraperitoneally, followed by gentle massage of the abdomen and opening the peritoneum to collect fluid. Full blood and peritoneal fluids were serially diluted (ten-fold dilutions) and 20 µl was plated on blood agar plates produced at the SSI diagniostica (Copenhagen, Denmark) with subsequent counting of colonies after incubation overnight at 35°C in ambient. All animal experiments were approved by the National Committee of Animal Ethics – Animal Experiment Inspectorate under the Danish Ministry of Justice.
Statistical analyses. […]

A further assay deals with PaLpxH. Put plainly: PaLpxH enzyme inhibition compared to EcLpxH. The following applies: PaLpxH vs EcLpxH. Type of assay: biochemical, P. aeruginosa.
[2] abbreviates: blood, read-out: ED50, blood, K. pneumoniae.
[3] abbreviates: peritoneal fluid, read-out: ED50, peritoneal fluid, K. pneumoniae.

Where two headings read alike, the source gives them in different places.

For the molecule `Cc1cc(C#N)nc(N2CCN(S(=O)(=O)c3ccc(NC(=O)c4cc(CNCCCN)ccc4N(C)S(C)(=O)=O)cc3)CC2)n1.Cl.Cl` [EBL-3599], in assay [1] (setting [2]), the 50% effective dose (ED50) (usually the dose that gives a 50% effect, or the effect in half of the subjects) stood at 20.2 mg/kg. Further, the median effective dose (ED50) in assay [1] (setting [3]) came out at 19.8 mg/kg. Besides, the “Efficacy against K. pneumoniae compared with ciprofloxacin (13 mg/kg)” value in assay [1] is “efficacy similar to ciprofloxacin”. Further, in assay [1] (blood), the “1-log effective dose, blood, K. pneumoniae” value was 20.2 mg/kg and the “2-log effective dose, blood, K. pneumoniae” value worked out at 28 mg/kg. In assay [1] (peritoneal fluid), the “1-log effective dose, peritoneal fluid, K. pneumoniae” value amounted to 20.4 mg/kg and the “2-log effective dose, peritoneal fluid, K. pneumoniae” value turned out to be 30.7 mg/kg. Further, the “Factor of decrease in inhibitory effect on PaLpxH compared to EcLpxH” value with PaLpxH was > 10.

Turning to `Cc1cc(C#N)nc(N2CCN(S(=O)(=O)c3ccc(NC(=O)c4cc(CN5CC(CN)C5)ccc4N(C)S(C)(=O)=O)cc3)CC2)n1` [EBL-3647], in assay [1] (setting [2]), the ED50 amounted to 21 mg/kg. The ED50 in assay [1] (setting [3]) is 21 mg/kg. Besides, in assay [1], the “Efficacy against K. pneumoniae compared with ciprofloxacin (13 mg/kg)” value was “efficacy similar to ciprofloxacin”. Also, in assay [1] (blood), the “1-log effective dose, blood, K. pneumoniae” value was 21 mg/kg and the “2-log effective dose, blood, K. pneumoniae” value is given as 27 mg/kg. In assay [1] (peritoneal fluid), the “1-log effective dose, peritoneal fluid, K. pneumoniae” value is on record as 22.8 mg/kg and the “2-log effective dose, peritoneal fluid, K. pneumoniae” value was found to be 37.3 mg/kg. Moreover, in the assay with PaLpxH, the “Factor of decrease in inhibitory effect on PaLpxH compared to EcLpxH” value is recorded as > 10.
